Test results published in ChEMBL document CHEMBL1140622, “Structure based de novo design of novel glycogen synthase kinase 3 inhibitors” (Bioorg Med Chem, 2007).

experiment: Inhibition of GSK3

Compound	IC50 [µM]	Log IC50
CN(C)CCNC(=O)c1ccc(/C=N/Nc2ncnc3c2cnn3-c2cccc3[nH]cnc23)cc1 [PYRAZOLOPYRIMIDINE 1]		-8.8
O=C1Nc2ccc(Br)cc2/C1=C1/Nc2ccccc2/C1=N\O [INDIRUBIN 2]	0.005	
O=C1NC(=O)C(c2cncc3ccoc23)=C1c1cn2c3c(cccc13)CN(C(=O)N1CCOCC1)CC2 [BISARYLMALEIMIDE 2]	0.0008	
CN(C)CCCn1cc(C2=C(c3c[nH]c4ccccc34)C(=O)NC2=O)c2ccccc21 [GF-109203]	0.19	
COc1cccc(Nc2nccc(-c3cnn4ncccc34)n2)c1 [PYRAZOLOPYRIDAZINE 1]	0.01	
COc1ccc(Nc2nccc(-c3cnn4ncccc34)n2)cc1OC [PYRAZOLOPYRIDAZINE 2]	0.012	
COc1cccc(-n2ncc3c(N/N=C/c4ccc(S(C)(=O)=O)cc4)ncnc32)c1 [PYRAZOLOPYRIMIDINE 2]		-8.6

Further lines, results first:

IC50 [µM]	Log IC50	Compound
0.004		CC(=O)O/N=C1/C(=C2/C(=O)Nc3cc(Cl)c(Cl)cc32)Nc2ccccc21 [INDIRUBIN 1]
0.017		O=C1NC(=O)C2=C1c1cn(c3ccccc13)CCOCCOCCOCCn1cc2c2cccnc21 [INDOLYLYLMALEIMIDE 1]
0.0007		O=C1NC(=O)C(c2cnc3cccnn23)=C1c1cn2c3c(cccc13)CN(C(=O)N1CCCCC1)CC2 [BISARYLMALEIMIDE 1]
0.022		O=C1NC(=O)C2=C1c1cn(c3ccccc13)CCOCCOCCOCCn1cc2c2ccccc21 [INDOLYLYLMALEIMIDE 2]
0.13		CC(=O)NC1=NC(=O)/C(=C2\CCNC(=O)c3c2cc(Br)n3C(C)=O)N1 [HYMENIALDISINE 2]
0.004		CN1CCN(c2cnc(NCCNc3ccc([N+](=O)[O-])c(N)n3)nc2-c2ccc(Cl)cc2Cl)C(=O)C1
